Patent publication US9133195B2, “Quaternary ammonium salt compounds of spirocyclopiperazines, preparation methods and uses thereof” (Peking University, priority 2006, dated 2015)
Structures can show the parent of a compound that is named as a salt.

Tests used:
Kunming mice = assay: Acetic acid-induced writhing test; type: in vivo; conditions: 31.0 umol/kg s.c., acetic acid i.p. after 30 min, writhing counted for 10 min; for inhibition in vivo at 31 µmol/kg: Mus musculus, sc
Experimental: Kunming mice, male and female in half, were randomly divided into groups with 8 mice in each group. The following groups were established: the normal saline (NS) control group, in which normal saline was administered by subcutaneous injection (s.c.); the test groups, in which 31.0 umol/kg quaternary ammonium salts compounds of piperazines of the present invention was administered by s.c. All drugs were dissolved in normal saline before use. The drug was injected at the dose of 0.1 ml/10 g. After 30 min, 0.2 ml of 0.6% acetic acid was injected intraperitoneally for each mouse. After 2˜3 min, the writhing reactions such as abdominal constriction, stretch of body and hind limbs, and hip raise occurred. Five minutes after acetic acid injection, the numbers of writhing was counted for 10 min. The percentage of inhibition was determined by using the following formula (1): Inhibition %=[(The numbers of writhing of control group−the numbers of writhing of drag injection group)/the numbers of writhing of control group]×100% (1) 2 Experimental Results
This experiment was carried out according to that of Example 36.

mice [1] = assay: Function of motion coordination (rota-rod); type: in vivo; conditions: 2.0 mg/kg
Experimental: (§1) All the following tests were carried out by using compound LXM-10 according to the routine methods.
The effect of muscle-relaxed effect on the analgesic effect of LXM-10 was also excluded.

mice [2] = assay: Spontaneous motion in mice; type: in vivo; conditions: 2.0 mg/kg
Experimental: as §1

Body temperature in mice = type: in vivo; conditions: 2.0 mg/kg
Experimental: as §1

Molecule COc1ccc(N2CC[N+]3(CCCC3)CC2)cc1 (as salt: bromide) [LXM-19, 8-(p-methoxyphenyl)-5,8-diazaspiro[4.5]decane bromide] has a melting point of 201 to 203 °C.
Molecule CC1C[N+]2(CCN(CCc3cccc(F)c3)CC2)CC(C)O1 (stereo not drawn) [LXM-8, 2,4-dimethyl-9-β-(m-fluorophenyl)ethyl-3-oxo-6,9-diazaspiro[5.5]undecane chloride] has an inhibition in vivo at 31 µmol/kg (Kunming mice) of 55%.
With C=CCN1CC[N+]2(CC1)CC(C)OC(C)C2 (stereo not shown) (as salt: chloride) [LXM-28, 2,4-dimethyl-9-allyl-3-oxo-6,9-diazaspiro[5.5]undecane chloride] the melting point was 236 °C (dec.).
In the case of N#Cc1cccc(N2CC[N+]3(CCCC3)CC2)c1 [LXM-22, 8-(m-cyanophenyl)-5,8-diazaspiro[4.5]decane bromide], the inhibition in vivo at 31 µmol/kg (Kunming mice) was 56%.
Molecule O=[N+]([O-])c1cccc(N2CC[N+]3(CCCC3)CC2)c1 [LXM-16, 8-(m-nitrophenyl)-5,8-diazaspiro[4.5]decane bromide] has an inhibition in vivo at 31 µmol/kg (Kunming mice) of 61%.
With c1ccc(N2CC[N+]3(CCCC3)CC2)cc1 (as salt: bromide) [LXM-18, 8-phenyl-5,8-diazaspiro[4.5]decane bromide] the melting point was 208 to 209 °C.
CC1CC[N+]2(CC1)CCN(CCc1ccccc1)CC2 [LXM-6, 3-methyl-9-(β-phenylethyl)-6,9-diazaspiro[5.5]undecane chloride] showed an inhibition in vivo at 31 µmol/kg (Kunming mice) of 30%.
Work on C=CCN1CC[N+]2(CC1)CC(C)OC(C)C2 (stereo not shown) [LXM-28, 2,4-dimethyl-9-allyl-3-oxo-6,9-diazaspiro[5.5]undecane chloride] yielded an inhibition in vivo at 31 µmol/kg (Kunming mice) of 49%.
For CC1CC[N+]2(CC1)CCN(CCc1ccccc1)CC2 (as salt: chloride) [LXM-6, 3-methyl-9-(β-phenylethyl)-6,9-diazaspiro[5.5]undecane chloride], the melting point was 230 °C (dec.).
In the case of “8-(4-chloro-3-pyridyl)-5,8-diazaspiro[4.5]decane bromide [LXM-24]”, the “Inhibition(%) of writhing” value (Kunming mice) was 46%.
For CCOC(=O)c1cccc(N2CC[N+]3(CCCC3)CC2)c1 [LXM-23, 8-(m-ethoxycarbonylphenyl)-5,8-diazaspiro[4.5]decane bromide], the inhibition in vivo at 31 µmol/kg (Kunming mice) was 39%.
Fc1cccc(N2CC[N+]3(CCCC3)CC2)c1 [LXM-21, 8-(m-fluorophenyl)-5,8-diazaspiro[4.5]decane bromide] showed an inhibition in vivo at 31 µmol/kg (Kunming mice) of 47%.
In the case of Oc1cccc(N2CC[N+]3(CCCC3)CC2)c1 [LXM-20, 8-(m-hydroxyphenyl)-5,8-diazaspiro[4.5]decane bromide], the inhibition in vivo at 31 µmol/kg (Kunming mice) was 53%.
Work on CC1C[N+]2(CCN(CCc3ccccn3)CC2)CC(C)O1 (stereo not shown) [LXM-31] yielded an inhibition in vivo at 31 µmol/kg (Kunming mice) of 58%.
Work on CC1C[N+]2(CCN(C/C=C/c3ccccc3)CC2)CC(C)O1 (stereo not shown) (as salt: chloride) [LXM-30, 2,4-dimethyl-9-cinnamenyl-3-oxo-6,9-diazaspiro[5.5] undecane chloride] yielded a melting point of 266 to 268 °C.
With CN1C(=O)CN=C(c2ccccc2)c2cc(Cl)ccc21 [Diazepam, reference compound] the “Time of falling down from rota-rod after treatment” value (“Time … after treatment” for short) (mice [1]; 0.5 h) was 48.8 ± 14.0 s, the “Time … after treatment” value (mice [1]; 2.0 h) was 73.3 ± 14.1 s and the “Time … after treatment” value (mice [1]; 3.5 h) was 111.7 ± 6.70 s. The “Time of falling down from rota-rod” value (mice [1]; before treatment) was 102.5 ± 6.48 s, the “Numbers of movement after treatment” value (mice [2]; 0.5 h) was 5.37 ± 1.64 and the “Numbers of movement after treatment” value (mice [2]; 2.0 h) was 10.8 ± 3.10. The “Numbers of movement after treatment” value (mice [2]; 3.5 h) was 18.2 ± 3.61, the Numbers of movement (mice [2]; before treatment) was 51.5 ± 5.15 and the “Rectal temperature after treatment” value (Body temperature in mice; 0.5 h) was 35.1 ± 0.26 °C. For the same molecule, the “Rectal temperature after treatment” value (Body temperature in mice; 2.0 h) was 35.9 ± 0.35 °C, the “Rectal temperature after treatment” value (Body temperature in mice; 3.5 h) was 36.5 ± 0.31 °C and the Rectal temperature (Body temperature in mice; before treatment) was 37.6 ± 0.17 °C.
c1cncc(N2CC[N+]3(CCCC3)CC2)c1 [LXM-25, 8-(3-pyridyl)-5,8-diazaspiro[4.5]decane bromide] gave an inhibition in vivo at 31 µmol/kg (Kunming mice) of 37%.
Work on Clc1ccc(N2CC[N+]3(CCCC3)CC2)nn1 [LXM-11, 8-(4-chloro-2,3-pyridazinyl)-5,8-diazaspiro[4.5]decane chloride] yielded an inhibition in vivo at 31 µmol/kg (Kunming mice) of 44%.
COc1ccc(N2CC[N+]3(CCCC3)CC2)cc1 [LXM-19, 8-(p-methoxyphenyl)-5,8-diazaspiro[4.5]decane bromide] showed an inhibition in vivo at 31 µmol/kg (Kunming mice) of 56%.
Molecule CC1C[N+]2(CCN(C/C=C/c3ccccc3)CC2)CC(C)O1 (stereo not shown) [LXM-30, 2,4-dimethyl-9-cinnamenyl-3-oxo-6,9-diazaspiro[5.5] undecane chloride] has an inhibition in vivo at 31 µmol/kg (Kunming mice) of 43%.
With c1ccc(N2CC[N+]3(CCCC3)CC2)cc1 [LXM-18, 8-phenyl-5,8-diazaspiro[4.5]decane bromide] the inhibition in vivo at 31 µmol/kg (Kunming mice) was 20%.
CC1C[N+]2(CCN(CCc3ccccn3)CC2)CC(C)O1 (stereo not shown) (as salt: chloride) [LXM-31] gave a melting point of 247 °C.
Molecule CC1C[N+]2(CCN(CCc3cccc([N+](=O)[O-])c3)CC2)CC(C)S1 (stereo not drawn) [LXM-9, 2,4-dimethyl-9-β-(m-nitrophenyl)ethyl-3-thio-6,9-diazaspiro[5.5]undecane chloride] has an inhibition in vivo at 31 µmol/kg (Kunming mice) of 62%.
